Data set [1] deals with Hepatotoxicity. Nature of the data set: Literature-mined compound from Fourches et al multi-species drug-induced liver injury (DILI) dataset, effect in humans. The following applies: human.
Data set [2] concerns Hepatotoxicity. Nature of the data set: Literature-mined compound from Fourches et al multi-species drug-induced liver injury (DILI) dataset, effect in non-rodents.
For data set [3], the system named is Hepatotoxicity. Nature of the data set: Literature-mined compound from Fourches et al multi-species drug-induced liver injury (DILI) dataset, effect in rodents. The following applies: rodentia.

In the case of `CCCCC(CC)CN1CN(CC(CC)CCCC)CC(C)(N)C1` (centres undefined) [HEXETIDINE], the Hepatotoxicity result in the data set on Hepatotoxicity [1] is listed as “no drug-induced liver injury reported”; with Hepatotoxicity [2], “no drug-induced liver injury reported”; with Hepatotoxicity [3], “drug-induced liver injury reported”.

Turning to `CN1C(=O)NC(=O)C(C)(C2=CCCCC2)C1=O` (centres undefined) [HEXOBARBITAL], the Hepatotoxicity entry in the data set with Hepatotoxicity [1] is on record as “no drug-induced liver injury reported”; with Hepatotoxicity [2], “no drug-induced liver injury reported”; in the data set with Hepatotoxicity [3], “drug-induced liver injury reported”.

Turning to `Cl.Cl.NCCc1c[nH]cn1` [HISTAMINE DIHYDROCHLORIDE], the values for the Hepatotoxicity result in the data set with Hepatotoxicity [1] (Liver), in the data set with Hepatotoxicity [2] (Liver) and in the data set on Hepatotoxicity [3] (Liver) were “no drug-induced liver injury reported”, “no drug-induced liver injury reported” and “drug-induced liver injury reported”, respectively.

Take `NNc1nncc2ccccc12` [HYDRALAZINE]: the Hepatotoxicity result in the data set with Hepatotoxicity [1] (Liver), with Hepatotoxicity [2] (Liver) and in the data set on Hepatotoxicity [3] (Liver) was “drug-induced liver injury reported” in each case.

As for `NS(=O)(=O)c1cc2c(cc1Cl)NCNS2(=O)=O` [HYDROCHLOROTHIAZIDE], the Hepatotoxicity result in the data set with Hepatotoxicity [1] is “drug-induced liver injury reported”; in the data set on Hepatotoxicity [2] it was “no drug-induced liver injury reported”; with Hepatotoxicity [3], “no drug-induced liver injury reported”.

Consider `CC(=O)OCC(=O)[C@@]1(O)CC[C@H]2[C@@H]3CCC4=CC(=O)CC[C@]4(C)[C@H]3[C@@H](O)C[C@@]21C` [HYDROCORTISONE ACETATE], for which the Hepatotoxicity result in the data set with Hepatotoxicity [1] is “no drug-induced liver injury reported”; with Hepatotoxicity [2], “no drug-induced liver injury reported”; in the data set on Hepatotoxicity [3] it was “drug-induced liver injury reported”.

With `C[C@]12CCC(=O)C=C1CC[C@@H]1[C@@H]2[C@@H](O)C[C@@]2(C)[C@H]1CC[C@]2(O)C(=O)CO` [HYDROCORTISONE], the Hepatotoxicity result with Hepatotoxicity [1], in the data set with Hepatotoxicity [2] and with Hepatotoxicity [3] was “drug-induced liver injury reported” each time.

In the case of `Oc1ccc(O)cc1` [HYDROQUINONE], the Hepatotoxicity entry is listed as “drug-induced liver injury reported” in the data set on Hepatotoxicity [1] (Liver), “no drug-induced liver injury reported” in the data set with Hepatotoxicity [2] (Liver) and “drug-induced liver injury reported” in the data set with Hepatotoxicity [3] (Liver).

Take `NC(=O)NO` [HYDROXYUREA]: the Hepatotoxicity result is “drug-induced liver injury reported” in the data set on Hepatotoxicity [1], “no drug-induced liver injury reported” in the data set with Hepatotoxicity [2] and “drug-induced liver injury reported” in the data set with Hepatotoxicity [3].

With `OCCOCCN1CCN(C(c2ccccc2)c2ccc(Cl)cc2)CC1` (centres undefined) [HYDROXYZINE], the Hepatotoxicity entry is “drug-induced liver injury reported” in the data set with Hepatotoxicity [1], “no drug-induced liver injury reported” with Hepatotoxicity [2] and “no drug-induced liver injury reported” in the data set on Hepatotoxicity [3].

Take `CNC(=O)[C@H]1O[C@@H](n2cnc3c(NCc4cccc(I)c4)ncnc32)[C@H](O)[C@@H]1O` [IB-MECA]: the Hepatotoxicity result with Hepatotoxicity [1] is “no drug-induced liver injury reported”; in the data set on Hepatotoxicity [2] it was “no drug-induced liver injury reported”; in the data set with Hepatotoxicity [3], “drug-induced liver injury reported”.

In the case of `CC(C)Cc1ccc(C(C)C(=O)O)cc1` (centres undefined) [IBUPROFEN], the Hepatotoxicity result is “drug-induced liver injury reported” in the data set with Hepatotoxicity [1], “no drug-induced liver injury reported” in the data set on Hepatotoxicity [2] and “drug-induced liver injury reported” in the data set on Hepatotoxicity [3].

On to `CC/C=C\C/C=C\C/C=C\C/C=C\C/C=C\CCCC(=O)O` [ICOSAPENT], for which the Hepatotoxicity result in the data set with Hepatotoxicity [1] is on record as “drug-induced liver injury reported”; in the data set on Hepatotoxicity [2], “no drug-induced liver injury reported”; in the data set with Hepatotoxicity [3], “drug-induced liver injury reported”.

On to `COC1=C(OC)C(=O)C(CCCCCCCCCCO)=C(C)C1=O` [IDEBENONE], for which the Hepatotoxicity result in the data set with Hepatotoxicity [1] is listed as “no drug-induced liver injury reported”; with Hepatotoxicity [2] it was “no drug-induced liver injury reported”; in the data set on Hepatotoxicity [3], “drug-induced liver injury reported”.

Regarding `CC/C(=C(\c1ccc(I)cc1)c1ccc(OCCN2CCCC2)cc1)c1ccccc1` [IDOXIFENE], the Hepatotoxicity entry is reported as “no drug-induced liver injury reported” in the data set with Hepatotoxicity [1], “no drug-induced liver injury reported” with Hepatotoxicity [2] and “drug-induced liver injury reported” in the data set with Hepatotoxicity [3].

Consider `O=P1(NCCCl)OCCCN1CCCl` (centres undefined) [IFOSFAMIDE], for which the Hepatotoxicity result in the data set on Hepatotoxicity [1] is “drug-induced liver injury reported”; with Hepatotoxicity [2], “no drug-induced liver injury reported”; in the data set with Hepatotoxicity [3] it was “no drug-induced liver injury reported”.

As for `CNC(=O)[C@H](Cc1c[nH]c2ccccc12)NC(=O)[C@@H](CC(=O)NO)CC(C)C` [ILOMASTAT], the Hepatotoxicity result in the data set with Hepatotoxicity [1] is “no drug-induced liver injury reported”; in the data set with Hepatotoxicity [2] it was “no drug-induced liver injury reported”; in the data set with Hepatotoxicity [3], “drug-induced liver injury reported”.

`CC#CCC(C)[C@H](O)/C=C/[C@@H]1[C@H]2C/C(=C/CCCC(=O)O)C[C@H]2C[C@H]1O` (some centres undefined) [ILOPROST]: the Hepatotoxicity result with Hepatotoxicity [1] was “no drug-induced liver injury reported”; in the data set with Hepatotoxicity [2], “no drug-induced liver injury reported”; in the data set with Hepatotoxicity [3], “drug-induced liver injury reported”.

Consider `CS(=O)(=O)O.Cc1ccc(NC(=O)c2ccc(CN3CCN(C)CC3)cc2)cc1Nc1nccc(-c2cccnc2)n1` [IMATINIB MESYLATE], for which the figures for the Hepatotoxicity result in the data set on Hepatotoxicity [1], with Hepatotoxicity [2] and with Hepatotoxicity [3] were “drug-induced liver injury reported”, “no drug-induced liver injury reported” and “drug-induced liver injury reported”, respectively.

Regarding `CN(C)CCCN1c2ccccc2CCc2ccccc21` [IMIPRAMINE], the Hepatotoxicity entry in the data set on Hepatotoxicity [1] is on record as “drug-induced liver injury reported”; in the data set with Hepatotoxicity [2], “no drug-induced liver injury reported”; in the data set with Hepatotoxicity [3], “drug-induced liver injury reported”.

As to `C#CC1(O)CCC2C3CCC4=CC(=O)CCC4C3C(=C)CC21CC` (centres undefined) [IMPLANON], the Hepatotoxicity entry with Hepatotoxicity [1] is listed as “drug-induced liver injury reported”; with Hepatotoxicity [2], “no drug-induced liver injury reported”; in the data set on Hepatotoxicity [3], “no drug-induced liver injury reported”.

With `Nc1cc(-c2ccncc2)c[nH]c1=O` [INAMRINONE], the values for the Hepatotoxicity entry in the data set on Hepatotoxicity [1], in the data set with Hepatotoxicity [2] and in the data set with Hepatotoxicity [3] were “no drug-induced liver injury reported”, “no drug-induced liver injury reported” and “drug-induced liver injury reported”, respectively.

Regarding `CC1Cc2ccccc2N1NC(=O)c1ccc(Cl)c(S(N)(=O)=O)c1` (centres undefined) [INDAPAMIDE], the Hepatotoxicity result was “no drug-induced liver injury reported” in the data set on Hepatotoxicity [1], “no drug-induced liver injury reported” in the data set on Hepatotoxicity [2] and “drug-induced liver injury reported” with Hepatotoxicity [3].

For `CC1(C)C(/C=C/C=C/C=C/C=C2/N(CCCCS(=O)(=O)[O-])c3ccc4ccccc4c3C2(C)C)=[N+](CCCCS(=O)(=O)[O-])c2ccc3ccccc3c21.[Na+]` [INDOCYANINE GREEN], the Hepatotoxicity entry in the data set with Hepatotoxicity [1] was “no drug-induced liver injury reported”; with Hepatotoxicity [2], “no drug-induced liver injury reported”; in the data set on Hepatotoxicity [3], “drug-induced liver injury reported”.

Regarding `COc1ccc2c(c1)c(CC(=O)O)c(C)n2C(=O)c1ccc(Cl)cc1` [INDOMETHACIN], the Hepatotoxicity result with Hepatotoxicity [1], in the data set with Hepatotoxicity [2] and in the data set on Hepatotoxicity [3] was “drug-induced liver injury reported” throughout.

With `OC[C@H]1O[C@@H](n2cnc3c(O)ncnc32)[C@H](O)[C@@H]1O` [INOSINE], the Hepatotoxicity entry in the data set with Hepatotoxicity [1] is given as “no drug-induced liver injury reported”; in the data set on Hepatotoxicity [2], “no drug-induced liver injury reported”; in the data set with Hepatotoxicity [3], “drug-induced liver injury reported”.

`O[C@H]1[C@H](O)[C@@H](O)[C@H](O)[C@@H](O)[C@H]1O` [INOSITOL]: the Hepatotoxicity entry with Hepatotoxicity [1] is recorded as “drug-induced liver injury reported”; in the data set with Hepatotoxicity [2], “no drug-induced liver injury reported”; in the data set on Hepatotoxicity [3] it was “no drug-induced liver injury reported”.

For the compound `Cc1cnc(NCCCN(C)C)c2c1[nH]c1ccc3cc(O)ccc3c12` [INTOPLICINE], the figures for the Hepatotoxicity entry in the data set on Hepatotoxicity [1], in the data set on Hepatotoxicity [2] and in the data set with Hepatotoxicity [3] were “drug-induced liver injury reported”, “no drug-induced liver injury reported” and “no drug-induced liver injury reported”, respectively.

As to `O=C(CCCCC(=O)Nc1c(I)cc(I)c(C(=O)O)c1I)Nc1c(I)cc(I)c(C(=O)O)c1I` [IODIPAMIDE], the Hepatotoxicity entry was “no drug-induced liver injury reported” with Hepatotoxicity [1], “drug-induced liver injury reported” in the data set with Hepatotoxicity [2] and “drug-induced liver injury reported” in the data set on Hepatotoxicity [3].

Consider `CC(=O)N(CC(O)CO)c1c(I)c(C(=O)NCC(O)CO)c(I)c(C(=O)NCC(O)CO)c1I` (centres undefined) [IOHEXOL], for which the Hepatotoxicity result in the data set with Hepatotoxicity [1] is on record as “no drug-induced liver injury reported”; with Hepatotoxicity [2], “drug-induced liver injury reported”; with Hepatotoxicity [3], “no drug-induced liver injury reported”.

For the compound `CC(C)NNC(=O)COc1ccc(Cl)cc1` [IPROCLOZIDE], the Hepatotoxicity result in the data set with Hepatotoxicity [1] is “drug-induced liver injury reported”; in the data set with Hepatotoxicity [2] it was “no drug-induced liver injury reported”; with Hepatotoxicity [3] it was “no drug-induced liver injury reported”.

On to `CC(C)NNC(=O)c1ccncc1` [IPRONIAZID], for which the results for the Hepatotoxicity entry with Hepatotoxicity [1], in the data set on Hepatotoxicity [2] and in the data set with Hepatotoxicity [3] were “drug-induced liver injury reported”, “no drug-induced liver injury reported” and “drug-induced liver injury reported”, respectively.

Consider `CCCCC1=NC2(CCCC2)C(=O)N1Cc1ccc(-c2ccccc2-c2nnn[nH]2)cc1` [IRBESARTAN], for which the values for the Hepatotoxicity result in the data set on Hepatotoxicity [1], in the data set with Hepatotoxicity [2] and in the data set on Hepatotoxicity [3] were “drug-induced liver injury reported”, “no drug-induced liver injury reported” and “drug-induced liver injury reported”, respectively.

Source of the values: ChEMBL document CHEMBL1697731, “Cheminformatics analysis of assertions mined from literature that describe drug-induced liver injury in different species” (Chem Res Toxicol, 2010).
